We go through 13 molecules from patent US11766447B2, “3′3′-cyclic dinucleotide analogue comprising a cyclopentanyl modified nucleotide as sting modulator” (INSTITUTE OF ORGANIC CHEMISTRY AND BIOCHEMISTRY ASCR, V.V.I., priority 2019, dated 2023).

Where two headings read alike, the source gives them in different places.

Experiment [1] has as its target T1, WT STING (Homo sapiens, UniProt Q86WV6, H232R). The experiment can be described thus: Differential scanning fluorimetry (DSF) with WT STING. Conditions: thermal shift vs apoprotein; 150 μM CDN; truncated human WT STING 0.1 mg/ml. In kind it is binding. More on the design: 8xHis (N, cleaved yes); SUMO (N, cleaved yes); made in house; host or cells: E. coli Rosetta-gami B (DE3). The essentials: (§1)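 […] STING proteins, alone or with CDNs, in triplicate, thermally denatured on a real-time PCR cycler. Denaturing temperatures taken from first-derivative curves; shift = mean Tm of STING–CDN complex minus mean Tm of apoprotein.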
Target sequence in this assay (Q86WV6 140-343 H232R): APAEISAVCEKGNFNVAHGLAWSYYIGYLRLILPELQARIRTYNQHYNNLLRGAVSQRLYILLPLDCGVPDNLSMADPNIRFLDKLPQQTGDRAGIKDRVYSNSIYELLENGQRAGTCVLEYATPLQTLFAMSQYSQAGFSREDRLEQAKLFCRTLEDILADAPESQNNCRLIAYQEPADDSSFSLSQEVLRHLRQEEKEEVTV
A general note: In DSF a fluorescence change marks the thermal transition of the protein.

For experiment [2], the target named is T1, WT STING. As to the kind of experiment: Digitonin assay using 293T wtSTING-FL reporter cells. The experiment is classed as cell-based. Conditions: 293T wtSTING-FL cells, ISRE firefly luciferase; compounds in Digitonin buffer 30 minutes, then 5 hours; 8-point curve. More on the design: host or cells: 293T (ATCC CRL-3216), stably transfected, with 4xISRE firefly luciferase reporter.
Target sequence in this assay (Q86WV6 whole entry H232R, the tested form may be a part): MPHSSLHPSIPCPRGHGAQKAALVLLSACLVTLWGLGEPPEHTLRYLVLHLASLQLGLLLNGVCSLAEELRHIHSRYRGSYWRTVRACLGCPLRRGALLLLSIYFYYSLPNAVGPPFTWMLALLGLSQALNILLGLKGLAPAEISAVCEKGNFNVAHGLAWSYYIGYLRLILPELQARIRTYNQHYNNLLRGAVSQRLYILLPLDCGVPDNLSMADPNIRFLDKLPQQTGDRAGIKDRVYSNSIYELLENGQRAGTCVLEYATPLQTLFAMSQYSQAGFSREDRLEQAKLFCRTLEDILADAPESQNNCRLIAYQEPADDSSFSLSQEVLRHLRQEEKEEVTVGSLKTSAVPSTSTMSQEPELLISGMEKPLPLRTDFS

Experiment [3] has as its target T1, WT STING. As to the kind of experiment: 293T WT STING standard reporter assay. The experiment is classed as cell-based. Details: host or cells: 293T (ATCC CRL-3216), stably transfected, with 4xISRE firefly luciferase reporter. Conditions: 293T wtSTING-FL cells, ISRE firefly luciferase; no digitonin; 7 hours with compounds; 8-point curve. The text has this:
Two complementary oligonucleotides of the sequence […] […] […] […] […] The oligonucleotides were mixed in equal molar amounts, hybridized, and cleaved by restriction endonucleases HindIII (cat. #. R0104S, NEB, Ipswich, USA) and BglII (cat. #R0144S, NEB, Ipswich, USA). Ultimately, they were ligated into plasmid pGL4.27 (cat. #E6651, Promega, Madison, USA) linearized with the same enzymes. As result the sequence with four ISRE sites was placed upstream of the minimum promoter of firefly luciferase reporter gene.
After 5 minutes incubation at room temperature (RT), 250 μL of the mixture was added dropwise to the cells in one well. Cells were incubated 36 hours at 37° C. with 5% CO2, and then detached with 0.05% Trypsin and 0.22 g/L EDTA (both cat. #L0941, Biowest, Riverside, USA).
Transfected cells were seeded onto poly-D-lysine coated six well plates at density 50,000 cells per 1 cm^2 in DMEM medium with high glucose containing 10% heat inactivated FBS, 30 μg/mL blasticidin (cat. #ant-b1-05, InvivoGen, San Diego, USA), 0.06 mg/ml Penicillin G and 0.1 mg/ml Streptomycin Sulfate (both cat. #. L0018, Biowest, Riverside, USA). The medium was replenished every 3-4 days until visible colonies of cells resistant to blasticidin were formed.
Blasticidin resistant cells stably expressing WT STING were further transfected with […] plasmid following the same procedure as described above. […] Homogeneous culture of stably double transfected cells was prepared by limiting dilution of cells in 96 well plates and wells with cells were selected that originated from a single cell.
The medium was removed next day and three-fold serial dilutions of compounds in 100 μl medium were added to the cells. The plates with cells were incubated for 7 hours at 37° C. with 5% CO2. After 50 μl of the medium was removed, 30 μl of ONE-Glo™ Luciferase Assay System reagent (cat. #E6120, Promega, Madison, USA) was added to each well and luminescence was read on Synergy H1 (Biotek, Winooski, USA).
Target sequence in this assay (Q86WV6 whole entry H232R, the tested form may be a part): as above
(In general: A reporter such as luciferase makes a cellular process visible.)

A further experiment has as its target T2, AQ STING (G230A-R293Q) (Homo sapiens, UniProt Q86WV6, G230A/H232R/R293Q).
T2 construct: 8xHis (N, cleaved yes); SUMO (N, cleaved yes); made in house; host or cells: E. coli Rosetta-gami B (DE3)
As to the kind of experiment: Differential scanning fluorimetry (DSF) with AQ STING. Conditions: thermal shift vs apoprotein; 150 μM CDN; truncated human AQ STING 0.1 mg/ml. In kind it is binding. The essentials: as §1

Experiment [4] concerns peripheral blood mononuclear cells (PBMC). As to the kind of experiment: Peripheral blood mononuclear cell (PBMC) assay. The experiment is classed as cell-based. Conditions: 1 h with compounds, washed, 15 hour incubation, average of one to four donors. Here is the method:
Selected compounds were tested in an in vitro peripheral blood mononuclear cell (PBMC) assay. […] Serially diluted tested compounds were added to wells in 50 μl of cultivation medium and cell were incubated with compounds for 1 h at 37° C. with 5% CO2. Plates with cells were then spun 500 g for 5 minutes and medium was removed. Cells were washed twice with the cell culture medium by the use of centrifugation and gently resuspended in 100 μl medium without compounds. After 15 hour incubation at 37° C. with 5% CO2, the cell culture medium was collected and the levels of interferon-alpha (INF-α), interferon-gamma (INF-γ) and tumor necrosis factor-alpha (TNF-α) were determined with ProcartaPlex Assays (ThermoFisher, Waltham, USA) and MAGPIX System (Merck KGaA, Darmstadt, Germany). […] Values reported are an average of runs from one to four donors.

[5] abbreviates: interferon-alpha level, read-out: PBMC EC50 (μM) IFN-α.
Setting [6] is: interferon-gamma level, read-out: PBMC EC50 (μM) IFN-γ.
The mark [7] stands for this setting: tumor necrosis factor-alpha level, read-out: PBMC EC50 (μM) TNF-α.
[8] abbreviates: PBMC, interferon-gamma level, read-out: PBMC EC50 (μM) IFN-γ.
The mark [9] stands for this setting: PBMC, tumor necrosis factor-alpha level, read-out: PBMC EC50 (μM) TNF-α.
Setting [10] is: PBMC, interferon-alpha level, read-out: PBMC EC50 (μM) IFN-α.

Broadly, the ΔTm is the shift of the melting midpoint relative to a reference. The EC50 is the concentration needed to bring the measured effect to its halfway point.

T2 sequence (Q86WV6 140-343 G230A/H232R/R293Q): as the sequence (Q86WV6 140-343 H232R) above, with G91A, R154Q counted along it

For `Nc1ncnc2c1ncn2[C@@H]1C[C@@H]2COP(=O)(S)OC3C(F)[C@H](n4cnc5c(N)ncnc54)O[C@@H]3COP(=O)(S)OC2C1F` (single isomer, unassigned) [Compound 102a], the ΔTm at 150 µM at WT STING [1] stood at 6.7 °C; at AQ STING (G230A-R293Q), 11.2 °C. For the same molecule, the EC50 on WT STING [2] turned out to be 110 nM; on WT STING [3] it was 1800 nM.

As to `Nc1ncnc2c1ncn2[C@@H]1C[C@@H]2COP(=O)(S)OC3C(F)[C@H](n4cnc5c(N)ncnc54)O[C@@H]3COP(=O)(S)OC2C1F` (single isomer, unassigned) [Compound 102b], at WT STING [1], the “DSF ΔTm (° C.) WT STING” value worked out at 11.9 °C. The results for the concentration for a half-maximal effect (EC50) at WT STING [2] and on WT STING [3] were 5 nM and 700 nM, respectively. For the same molecule, the “DSF ΔTm (° C.) AQ STING” value at AQ STING (G230A-R293Q) worked out at 16.9 °C.

Consider `Nc1ncnc2c1ncn2[C@@H]1C[C@@H]2COP(=O)(S)OC3C(F)[C@H](n4cnc5c(N)ncnc54)O[C@@H]3COP(=O)(S)OC2C1F` (single isomer, unassigned) [Compound 102d], for which the EC50 stood at 10 nM on WT STING [2] and 400 nM at WT STING [3].

`Nc1ncnc2c1ncn2[C@@H]1C[C@@H]2COP(=O)(O)O[C@H]3[C@@H](F)[C@H](n4cnc5c(N)ncnc54)O[C@@H]3COP(=O)(S)O[C@H]2[C@H]1F` (single isomer, unassigned) [Compound 130a]: the ΔTm at 150 µM worked out at 14.7 °C at WT STING [1] and 20.7 °C on AQ STING (G230A-R293Q). Besides, the concentration giving a half-maximal response (EC50) came out at 10 nM on WT STING [2] and 1000 nM at WT STING [3].

On to `Nc1ncnc2c1ncn2[C@@H]1C[C@@H]2COP(=O)(O)O[C@H]3[C@@H](F)[C@H](n4cnc5c(N)ncnc54)O[C@@H]3COP(=O)(S)O[C@H]2[C@H]1F` (single isomer, unassigned) [Compound 130b], for which, on WT STING [1], the “DSF ΔTm (° C.) WT STING” value worked out at 13.6 °C. The results for the EC50 on WT STING [2] and on WT STING [3] were 10 nM and 1200 nM, respectively. For the same molecule, the “DSF ΔTm (° C.) AQ STING” value on AQ STING (G230A-R293Q) came out at 20.3 °C.

For `Nc1ncnc2c1ncn2[C@@H]1C[C@@H]2COP(=O)(S)OC3C[C@H](n4cnc5c(N)ncnc54)O[C@@H]3COP(=O)(S)OC2C1F` (single isomer, unassigned) [Compound 142b], the EC50 at WT STING [2] was found to be 20 nM; at WT STING [3], 500 nM.

On to `CCCCCCCC(=O)OCOP1(=O)OC[C@H]2O[C@@H](n3cnc4c(N)ncnc43)[C@H](F)[C@@H]2OP(=O)(OCOC(=O)CCCCCCC)OC[C@H]2C[C@@H](n3cnc4c(N)ncnc43)[C@H](F)[C@@H]2O1` (single isomer, unassigned) [Compound 146b], for which the EC50 at WT STING [3] came out at 0.3 nM; in experiment [4] (setting [5]), 0.02 µM; in experiment [4] (setting [6]), 0.01 µM; in experiment [4] (setting [7]) it was 0.01 µM.

As to `CCCCCCCC(=O)OCOP1(=O)OC[C@H]2O[C@@H](n3cnc4c(N)ncnc43)[C@H](F)[C@@H]2OP(=O)(OCOC(=O)CCCCCCC)OC[C@H]2C[C@@H](n3cnc4c(N)ncnc43)[C@H](F)[C@@H]2O1` (single isomer, unassigned) [Compound 146c], the EC50 on WT STING [3] was 1 nM; in experiment [4] (setting [5]), 0.02 µM; in experiment [4] (setting [6]) it was 0.02 µM; in experiment [4] (setting [7]), 0.01 µM.

Consider `CC(C)(C)C(=O)OCOP1(=O)OC[C@H]2O[C@@H](n3cnc4c(N)ncnc43)CC2OP(=O)(OCOC(=O)C(C)(C)C)OC[C@H]2C[C@@H](n3cnc4c(N)ncnc43)C(F)C2O1` (stereo partly drawn) [Compound 139a, (((2R,3aS,7aR,9R,10S,10aR,14aR)-2,9-bis(6-amino-9H-purin-9-yl)-10-fluoro-5,12-dioxidodecahydro-2H-cyclopenta[d]furo[3,2-j][1,3,7,9]tetraoxa[2,8]di-phosphacyclododecine-5,12-diyl)bis(oxy))bis(methylene) bis(2,2-dimethylpropanoate)], for which the values for the EC50 (on WT STING [3]; in experiment [4] (setting [8]); in experiment [4] (setting [9])) were 3 nM, 0.1 µM and 0.1 µM, respectively.

Turning to `CC(C)(C)C(=O)OCOP1(=O)OC[C@H]2O[C@@H](n3cnc4c(N)ncnc43)CC2OP(=O)(OCOC(=O)C(C)(C)C)OC[C@H]2C[C@@H](n3cnc4c(N)ncnc43)C(F)C2O1` (stereo partly drawn) [Compound 139b, (((2R,3aS,7aR,9R,10S,10aR,14aR)-2,9-bis(6-amino-9H-purin-9-yl)-10-fluoro-5,12-dioxidodecahydro-2H-cyclopenta[d]furo[3,2-j][1,3,7,9]tetraoxa[2,8]di-phosphacyclododecine-5,12-diyl)bis(oxy))bis(methylene) bis(2,2-dimethylpropanoate)], the EC50 turned out to be 1 nM at WT STING [3], 0.3 µM in experiment [4] (setting [5]), 0.1 µM in experiment [4] (setting [6]) and 0.1 µM in experiment [4] (setting [7]).

Regarding `CC(C)OC(=O)OCOP1(=O)OC[C@H]2O[C@@H](n3cnc4c(N)ncnc43)C(F)C2OP(=O)(OCOC(=O)OC(C)C)OC[C@H]2C[C@@H](n3cnc4c(N)ncnc43)C(F)C2O1` (stereo partly drawn) [Compound 143b, {[(1R,6R,8R,9R,10R,15R,17R,18S)-8,17-bis(6-amino-9H-purin-9-yl)-9,18-difluoro-3,12-dioxo-3-({[(propan-2-yloxy)carbonyl]oxy}methoxy)-2,4,7,11,13-pentaoxa-3λ^5,12λ^5-diphosphatricyclo[13.3.0.0^6,10]octadecan-12-yl]oxy}methyl propan-2-yl carbonate], the EC50 on WT STING [3] was 5 nM; in experiment [4] (setting [10]) it was 0.3 µM; in experiment [4] (setting [8]), 0.15 µM; in experiment [4] (setting [9]), 0.3 µM.

On to `CCC(C)(C)C(=O)OCOP1(=O)OC[C@H]2O[C@@H](n3cnc4c(N)ncnc43)C(F)C2OP(=O)(OCOC(=O)C(C)(C)CC)OC[C@H]2C[C@@H](n3cnc4c(N)ncnc43)C(F)C2O1` (stereo partly drawn) [Compound 144b, {[(1R,6R,8R,9R,10R,15R,17R,18S)-8,17-bis(6-amino-9H-purin-9-yl)-3-{[(2,2-dimethylbutanoy)oxy]methoxy}-9,18-difluoro-3,12-dioxo-2,4,7,11,13-pentaoxa-3λ^5,12λ^5-diphosphatricyclo[13.3.0.0^6,10]octadecan-12-yl]oxy}methyl 2,2-dimethylbutanoate], for which the EC50 was found to be 1 nM on WT STING [3], 0.04 µM in experiment [4] (setting [10]), 0.05 µM in experiment [4] (setting [8]) and 0.02 µM in experiment [4] (setting [9]).

As for `CC1(C(=O)OCOP2(=O)OC[C@H]3O[C@@H](n4cnc5c(N)ncnc54)C(F)C3OP(=O)(OCOC(=O)C3(C)CCCCC3)OC[C@H]3C[C@@H](n4cnc5c(N)ncnc54)C(F)C3O2)CCCCC1` (some centres unmarked) [Compound 145c], the half-maximal effective concentration (EC50) was found to be 6 nM on WT STING [3], 0.04 µM in experiment [4] (setting [10]), 0.01 µM in experiment [4] (setting [8]) and 0.02 µM in experiment [4] (setting [9]).
